From article PMC12641067 (Clinical Pharmacology and Therapeutics, 2025)
Like-named read-outs stand apart in the source and are kept apart here.

Tests used:
[1] = Population PK model of rifampicin (plasma data); assay type: in vivo, human; conditions: population estimate (RSE%)
Method: Individual plasma and urine data of GCDCA‐S in healthy subjects were obtained from three clinical studies. Tatosian et al.[18] (study #1) consisted of two occasions: on both occasions, a microdose probe drug cocktail for multiple clinically relevant transporters was administered, with a single oral dose of 600 mg rifampicin co‐administered on the second occasion (n = 6; 3 males, 3 females). Willemin et al.[22] (study #2) was a two‐phase, cross‐over study with a 21‐day washout period between the two phases. […] Study #3 consists of unpublished data from the same study design as reported by Willemin et al. (n = 12; 12 males).[22]
Models were evaluated using visual predictive check (VPC) plots, goodness‐of‐fit (GOF) plots, parameter uncertainty, and changes in objective function. Model visualization and simulations were conducted in MATLAB 2024a (MathWorks, Natick, MA, USA) and Graph Pad Prism 10.2.2 (GraphPad software, La Jolla, CA, USA).
The structural model for rifampicin was based on our previous report,[33] and represents a one‐compartment model with zero‐order absorption and linear elimination.
The models for rifampicin, probenecid, and GCDCA‐S incorporated both inter‐individual variability for a number of model parameters (assuming log‐normal distribution) and residual unexplained variability (using a combination of proportional and additive error models).

OATP1B1 [2] = system: OATP1B1; set-up: method as in ref 18 (a number printed in a supplementary file, which may have a reference list of its own: not looked up in the article's list); conditions: HEK293, read-out: In vitro OATP1B1 IC50, cited from earlier work
OATP1B3 [3] = molecular target: T1, OATP1B3 (Homo sapiens, UniProt Q9NPD5); set-up: method as in ref 18 (a number printed in a supplementary file, which may have a reference list of its own: not looked up in the article's list); conditions: HEK293, read-out: In vitro OATP1B3 IC50, cited from earlier work
T1 sequence (Q9NPD5 1-702): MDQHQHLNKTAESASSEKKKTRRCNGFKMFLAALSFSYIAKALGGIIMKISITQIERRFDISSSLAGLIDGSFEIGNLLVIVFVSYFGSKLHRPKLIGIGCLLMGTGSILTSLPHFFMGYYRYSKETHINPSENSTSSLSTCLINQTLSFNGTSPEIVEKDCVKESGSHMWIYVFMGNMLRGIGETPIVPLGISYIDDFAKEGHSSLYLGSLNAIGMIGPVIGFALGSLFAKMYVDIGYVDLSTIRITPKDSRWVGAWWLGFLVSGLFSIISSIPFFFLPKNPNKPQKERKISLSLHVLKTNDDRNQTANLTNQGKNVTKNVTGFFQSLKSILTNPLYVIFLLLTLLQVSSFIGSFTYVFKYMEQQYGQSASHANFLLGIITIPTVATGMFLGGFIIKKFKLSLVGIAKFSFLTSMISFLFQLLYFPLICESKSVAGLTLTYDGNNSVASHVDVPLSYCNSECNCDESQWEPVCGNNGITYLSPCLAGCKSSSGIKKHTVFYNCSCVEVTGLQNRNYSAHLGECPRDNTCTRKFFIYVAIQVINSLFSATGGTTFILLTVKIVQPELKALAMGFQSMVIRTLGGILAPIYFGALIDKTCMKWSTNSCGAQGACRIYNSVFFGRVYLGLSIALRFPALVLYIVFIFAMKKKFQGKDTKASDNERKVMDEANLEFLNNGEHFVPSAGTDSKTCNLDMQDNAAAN

OATP1B = conditions: substrate CP-I, 600 mg, read-out: In vivo OATP1B Ki,u, cited from earlier work
OATP1B1 [4] = system: OATP1B1; set-up: method as in ref 22 (a number printed in a supplementary file, which may have a reference list of its own: not looked up in the article's list); conditions: substrate CP-I, 150 – 600 mg, read-out: In vivo OATP1B Ki,u; cited from earlier work
OATP1B3 [5] = molecular target: T1, OATP1B3; assay: In vivo OATP1B3 inhibition estimated by POP-PK modeling of GCDCA-S data; set-up: hepatic OATP1B3 and renal OAT3 transporters; from tissue; host or cells: liver (hepatocytes) of healthy human subjects, in vivo; conditions: GCDCA-S as substrate, rifampicin 600 mg, population estimate (RSE%), read-out: K i,unbound,OATP1B3

For `CO[C@H]1/C=C/O[C@@]2(C)Oc3c(C)c(O)c4c(O)c(c(/C=N/N5CCN(C)CC5)c(O)c4c3C2=O)NC(=O)/C(C)=C\C=C\[C@H](C)[C@H](O)[C@@H](C)[C@@H](O)[C@@H](C)[C@H](OC(C)=O)[C@@H]1C` [RIF, rifampicin], the clearance ([1]; both sexes, human, plasma, oral, 600 mg, read-out: CL RIF (converted)) was 112 mL/min, the “Tk0 RIF” value ([1]; duration of zero-order absorption) was 0.84 (41) h and the “V RIF” value [1] was 35 (5) L. The “Tlag RIF” value ([1]; single oral dose 600 mg) was 0.56 (20) h, the IC50 (OATP1B1 [2]; substrate CP-I) was 610 nM and the IC50 (OATP1B1 [2]; substrate GCDCA-S) was 170 nM. The IC50 (OATP1B3 [3]; substrate CP-I) was 570 nM, the IC50 (OATP1B3 [3]; substrate GCDCA-S) was 280 nM and the Ki (OATP1B; ref 8) was 130 nM. For the same compound, the Ki (OATP1B; ref 19) was 20 nM, the Ki (OATP1B; ref 21) was 100 nM and the Ki (OATP1B; ref 23) was 38 nM. For the same compound, the Ki (OATP1B; ref 24) was 53 nM, the Ki (OATP1B1 [4]) was 140 nM and the Ki (OATP1B3 [5]) was 9 nM.
